According to ChEMBL document CHEMBL3400099, “Novel thiazole-thiophene conjugates as adenosine receptor antagonists: synthesis, biological evaluation and docking studies” (Bioorg Med Chem Lett, 2015):

Target: T1, Adenosine receptor A1 (Homo sapiens, UniProt P30542)
T1 sequence (P30542 whole entry): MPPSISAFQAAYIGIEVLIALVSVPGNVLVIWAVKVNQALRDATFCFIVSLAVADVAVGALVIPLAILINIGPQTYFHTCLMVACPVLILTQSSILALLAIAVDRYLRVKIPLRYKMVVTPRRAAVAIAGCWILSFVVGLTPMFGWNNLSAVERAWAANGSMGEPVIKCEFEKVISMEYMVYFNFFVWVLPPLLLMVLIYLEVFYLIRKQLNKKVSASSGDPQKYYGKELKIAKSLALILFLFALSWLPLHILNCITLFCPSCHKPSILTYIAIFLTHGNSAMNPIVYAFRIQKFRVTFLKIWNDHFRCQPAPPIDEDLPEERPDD
Test: Displacement of [3H]CCPA from human adenosine A1 receptor expressed in CHO cells
Type: cell-based

SMILES	Ki
CCOC(=O)c1c(NC(=O)c2sc(Nc3ccc(OC)cc3)nc2-c2ccc(C)cc2)sc2c1CCCC2	> 10 µM
CCOC(=O)c1c(NC(=O)c2sc(Nc3ccc(C)cc3)nc2-c2ccc(C)cc2)sc2c1CCCC2	> 30 µM
CCOC(=O)c1c(NC(=O)c2sc(Nc3ccccc3)nc2-c2ccc(C)cc2)sc2c1CCCC2	7.75 µM
Cc1ccc(-c2nc(Nc3ccccc3)sc2C(=O)Nc2sc3c(c2C(N)=O)CCCC3)cc1	2.38 µM
Cc1ccc(Nc2nc(N(C)C)c(C(=O)Nc3sc4c(c3C#N)CCCC4)s2)cc1	> 100 µM
Cc1ccc(Nc2nc(-c3ccc(C)cc3)c(C(=O)Nc3sc4c(c3C#N)CCCC4)s2)cc1	> 10 µM
COc1ccc(Nc2nc(-c3ccc(C)cc3)c(C(=O)Nc3sc4c(c3C#N)CCCC4)s2)cc1	> 30 µM
CCOC(=O)c1c(NC(=O)c2sc(Nc3ccc(OC)cc3)nc2N(C)C)sc(C(=O)OC)c1C	14 µM
CCOC(=O)c1c(NC(=O)c2sc(Nc3ccc(C)cc3)nc2C)sc(C(=O)OC)c1C	> 30 µM
CCOC(=O)c1c(NC(=O)c2sc(Nc3ccccc3)nc2N(C)C)sc2c1CCCC2	40.8 µM
CCOC(=O)c1c(NC(=O)c2sc(Nc3ccc(C)cc3)nc2N(C)C)sc(C(=O)OC)c1C	19 µM
CCOC(=O)c1c(NC(=O)c2sc(Nc3ccc(C)cc3)nc2N(C)C)sc2c1CCCC2	23.5 µM
CCOC(=O)c1c(NC(=O)c2sc(NC(=O)OC)nc2N(C)C)sc2c1CCCC2	> 100 µM
Cc1ccc(Nc2nc(-c3ccc(C)cc3)c(C(=O)Nc3sc4c(c3C(N)=O)CCCC4)s2)cc1	> 30 µM
CN(C)c1nc(Nc2ccccc2)sc1C(=O)Nc1sc2c(c1C#N)CCCC2	> 30 µM
Cc1ccc(Nc2nc(C)c(C(=O)Nc3sc4c(c3C#N)CCCC4)s2)cc1	> 30 µM
Cc1ccc(Nc2nc(N(C)C)c(C(=O)Nc3sc4c(c3C(N)=O)CCCC4)s2)cc1	32.4 µM
CCOC(=O)c1c(NC(=O)c2sc(Nc3ccc(C)cc3)nc2C)sc2c1CCCC2	> 30 µM

Target: Adenosine receptor A2a (Homo sapiens, UniProt P29274)
Test: Displacement of [3H]NECA from human adenosine A2A receptor expressed in CHO cells
Type: cell-based

Adenosine receptor A2a, sequence (P29274 whole entry): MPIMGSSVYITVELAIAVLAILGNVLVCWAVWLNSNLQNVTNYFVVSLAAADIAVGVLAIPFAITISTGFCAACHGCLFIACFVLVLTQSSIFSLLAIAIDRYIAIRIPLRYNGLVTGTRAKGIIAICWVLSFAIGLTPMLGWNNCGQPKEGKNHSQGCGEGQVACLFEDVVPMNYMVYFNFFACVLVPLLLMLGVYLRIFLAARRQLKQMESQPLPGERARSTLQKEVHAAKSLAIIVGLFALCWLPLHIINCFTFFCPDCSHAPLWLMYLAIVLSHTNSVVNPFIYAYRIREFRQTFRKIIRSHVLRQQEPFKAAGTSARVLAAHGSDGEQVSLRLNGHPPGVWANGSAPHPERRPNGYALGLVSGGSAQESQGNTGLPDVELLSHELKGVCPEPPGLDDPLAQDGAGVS

SMILES	Ki
CCOC(=O)c1c(NC(=O)c2sc(Nc3ccc(OC)cc3)nc2-c2ccc(C)cc2)sc2c1CCCC2	> 10 µM
CCOC(=O)c1c(NC(=O)c2sc(Nc3ccc(C)cc3)nc2-c2ccc(C)cc2)sc2c1CCCC2	> 30 µM
CCOC(=O)c1c(NC(=O)c2sc(Nc3ccccc3)nc2-c2ccc(C)cc2)sc2c1CCCC2	28.4 µM
Cc1ccc(-c2nc(Nc3ccccc3)sc2C(=O)Nc2sc3c(c2C(N)=O)CCCC3)cc1	3.44 µM
Cc1ccc(Nc2nc(N(C)C)c(C(=O)Nc3sc4c(c3C#N)CCCC4)s2)cc1	> 10 µM
Cc1ccc(Nc2nc(-c3ccc(C)cc3)c(C(=O)Nc3sc4c(c3C#N)CCCC4)s2)cc1	> 10 µM
COc1ccc(Nc2nc(-c3ccc(C)cc3)c(C(=O)Nc3sc4c(c3C#N)CCCC4)s2)cc1	> 30 µM
CCOC(=O)c1c(NC(=O)c2sc(Nc3ccc(OC)cc3)nc2N(C)C)sc(C(=O)OC)c1C	9.66 µM
CCOC(=O)c1c(NC(=O)c2sc(Nc3ccc(C)cc3)nc2C)sc(C(=O)OC)c1C	> 30 µM
CCOC(=O)c1c(NC(=O)c2sc(Nc3ccccc3)nc2N(C)C)sc2c1CCCC2	6.45 µM
CCOC(=O)c1c(NC(=O)c2sc(Nc3ccc(C)cc3)nc2N(C)C)sc(C(=O)OC)c1C	26.6 µM
CCOC(=O)c1c(NC(=O)c2sc(Nc3ccc(C)cc3)nc2N(C)C)sc2c1CCCC2	18 µM
CCOC(=O)c1c(NC(=O)c2sc(NC(=O)OC)nc2N(C)C)sc2c1CCCC2	> 100 µM
Cc1ccc(Nc2nc(-c3ccc(C)cc3)c(C(=O)Nc3sc4c(c3C(N)=O)CCCC4)s2)cc1	> 10 µM
CN(C)c1nc(Nc2ccccc2)sc1C(=O)Nc1sc2c(c1C#N)CCCC2	> 30 µM
Cc1ccc(Nc2nc(C)c(C(=O)Nc3sc4c(c3C#N)CCCC4)s2)cc1	5.67 µM
Cc1ccc(Nc2nc(N(C)C)c(C(=O)Nc3sc4c(c3C(N)=O)CCCC4)s2)cc1	22.3 µM
CCOC(=O)c1c(NC(=O)c2sc(Nc3ccc(C)cc3)nc2C)sc2c1CCCC2	> 30 µM

Target: T2, Adenosine receptor A3 (Homo sapiens, UniProt P0DMS8)
T2 sequence (P0DMS8 whole entry): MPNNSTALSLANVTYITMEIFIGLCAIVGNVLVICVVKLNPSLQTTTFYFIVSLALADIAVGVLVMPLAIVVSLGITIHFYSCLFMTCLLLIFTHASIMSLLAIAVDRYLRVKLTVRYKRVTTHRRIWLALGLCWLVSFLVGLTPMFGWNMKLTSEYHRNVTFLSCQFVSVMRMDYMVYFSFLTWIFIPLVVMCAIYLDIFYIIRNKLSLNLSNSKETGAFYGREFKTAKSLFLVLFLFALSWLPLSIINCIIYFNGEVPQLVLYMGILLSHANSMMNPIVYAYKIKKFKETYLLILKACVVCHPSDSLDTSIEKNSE
Test: Displacement of [3H]HEMADO from human adenosine A3 receptor expressed in CHO cells
Type: cell-based

SMILES	Ki
CCOC(=O)c1c(NC(=O)c2sc(Nc3ccc(OC)cc3)nc2-c2ccc(C)cc2)sc2c1CCCC2	0.52 µM
CCOC(=O)c1c(NC(=O)c2sc(Nc3ccc(C)cc3)nc2-c2ccc(C)cc2)sc2c1CCCC2	2.16 µM
CCOC(=O)c1c(NC(=O)c2sc(Nc3ccccc3)nc2-c2ccc(C)cc2)sc2c1CCCC2	4.09 µM
Cc1ccc(-c2nc(Nc3ccccc3)sc2C(=O)Nc2sc3c(c2C(N)=O)CCCC3)cc1	0.334 µM
Cc1ccc(Nc2nc(N(C)C)c(C(=O)Nc3sc4c(c3C#N)CCCC4)s2)cc1	34 µM
Cc1ccc(Nc2nc(-c3ccc(C)cc3)c(C(=O)Nc3sc4c(c3C#N)CCCC4)s2)cc1	> 10 µM
COc1ccc(Nc2nc(-c3ccc(C)cc3)c(C(=O)Nc3sc4c(c3C#N)CCCC4)s2)cc1	9.56 µM
CCOC(=O)c1c(NC(=O)c2sc(Nc3ccc(OC)cc3)nc2N(C)C)sc(C(=O)OC)c1C	2.73 µM
CCOC(=O)c1c(NC(=O)c2sc(Nc3ccc(C)cc3)nc2C)sc(C(=O)OC)c1C	> 30 µM
CCOC(=O)c1c(NC(=O)c2sc(Nc3ccccc3)nc2N(C)C)sc2c1CCCC2	4.12 µM
CCOC(=O)c1c(NC(=O)c2sc(Nc3ccc(C)cc3)nc2N(C)C)sc(C(=O)OC)c1C	3.91 µM
CCOC(=O)c1c(NC(=O)c2sc(Nc3ccc(C)cc3)nc2N(C)C)sc2c1CCCC2	4.71 µM
CCOC(=O)c1c(NC(=O)c2sc(NC(=O)OC)nc2N(C)C)sc2c1CCCC2	> 30 µM
Cc1ccc(Nc2nc(-c3ccc(C)cc3)c(C(=O)Nc3sc4c(c3C(N)=O)CCCC4)s2)cc1	0.33 µM
CN(C)c1nc(Nc2ccccc2)sc1C(=O)Nc1sc2c(c1C#N)CCCC2	35.6 µM
Cc1ccc(Nc2nc(C)c(C(=O)Nc3sc4c(c3C#N)CCCC4)s2)cc1	3.87 µM
Cc1ccc(Nc2nc(N(C)C)c(C(=O)Nc3sc4c(c3C(N)=O)CCCC4)s2)cc1	7.13 µM
CCOC(=O)c1c(NC(=O)c2sc(Nc3ccc(C)cc3)nc2C)sc2c1CCCC2	8.22 µM

Target: Adenosine receptors; A1 & A3 (Homo sapiens) (UniProt P30542+P0DMS8)
Test: Selectivity ratio of Ki for human adenosine A1 receptor to Ki for human adenosine A3 receptor

SMILES	Selectivity ratio
CCOC(=O)c1c(NC(=O)c2sc(Nc3ccc(OC)cc3)nc2-c2ccc(C)cc2)sc2c1CCCC2	> 19
CCOC(=O)c1c(NC(=O)c2sc(Nc3ccc(C)cc3)nc2-c2ccc(C)cc2)sc2c1CCCC2	> 14
CCOC(=O)c1c(NC(=O)c2sc(Nc3ccccc3)nc2-c2ccc(C)cc2)sc2c1CCCC2	1.9
Cc1ccc(-c2nc(Nc3ccccc3)sc2C(=O)Nc2sc3c(c2C(N)=O)CCCC3)cc1	7.1
Cc1ccc(Nc2nc(N(C)C)c(C(=O)Nc3sc4c(c3C#N)CCCC4)s2)cc1	> 2.9
COc1ccc(Nc2nc(-c3ccc(C)cc3)c(C(=O)Nc3sc4c(c3C#N)CCCC4)s2)cc1	> 3.1
CCOC(=O)c1c(NC(=O)c2sc(Nc3ccc(OC)cc3)nc2N(C)C)sc(C(=O)OC)c1C	5.1
CCOC(=O)c1c(NC(=O)c2sc(Nc3ccccc3)nc2N(C)C)sc2c1CCCC2	9.9
CCOC(=O)c1c(NC(=O)c2sc(Nc3ccc(C)cc3)nc2N(C)C)sc(C(=O)OC)c1C	4.9
CCOC(=O)c1c(NC(=O)c2sc(Nc3ccc(C)cc3)nc2N(C)C)sc2c1CCCC2	5
CCOC(=O)c1c(NC(=O)c2sc(NC(=O)OC)nc2N(C)C)sc2c1CCCC2	> 3.3
Cc1ccc(Nc2nc(-c3ccc(C)cc3)c(C(=O)Nc3sc4c(c3C(N)=O)CCCC4)s2)cc1	> 90
CN(C)c1nc(Nc2ccccc2)sc1C(=O)Nc1sc2c(c1C#N)CCCC2	> 0.84
Cc1ccc(Nc2nc(C)c(C(=O)Nc3sc4c(c3C#N)CCCC4)s2)cc1	> 7.8
Cc1ccc(Nc2nc(N(C)C)c(C(=O)Nc3sc4c(c3C(N)=O)CCCC4)s2)cc1	4.5
CCOC(=O)c1c(NC(=O)c2sc(Nc3ccc(C)cc3)nc2C)sc2c1CCCC2	> 3.7

Species on record: Homo sapiens
Test: Selectivity ratio of Ki for human adenosine A2A receptor to Ki for human adenosine A3 receptor

SMILES	Selectivity ratio
CCOC(=O)c1c(NC(=O)c2sc(Nc3ccc(OC)cc3)nc2-c2ccc(C)cc2)sc2c1CCCC2	> 19
CCOC(=O)c1c(NC(=O)c2sc(Nc3ccc(C)cc3)nc2-c2ccc(C)cc2)sc2c1CCCC2	> 14
CCOC(=O)c1c(NC(=O)c2sc(Nc3ccccc3)nc2-c2ccc(C)cc2)sc2c1CCCC2	6.9
Cc1ccc(-c2nc(Nc3ccccc3)sc2C(=O)Nc2sc3c(c2C(N)=O)CCCC3)cc1	10
Cc1ccc(Nc2nc(N(C)C)c(C(=O)Nc3sc4c(c3C#N)CCCC4)s2)cc1	> 0.29
COc1ccc(Nc2nc(-c3ccc(C)cc3)c(C(=O)Nc3sc4c(c3C#N)CCCC4)s2)cc1	> 3.1
CCOC(=O)c1c(NC(=O)c2sc(Nc3ccc(OC)cc3)nc2N(C)C)sc(C(=O)OC)c1C	3.5
CCOC(=O)c1c(NC(=O)c2sc(Nc3ccc(C)cc3)nc2C)sc(C(=O)OC)c1C	0.33
CCOC(=O)c1c(NC(=O)c2sc(Nc3ccccc3)nc2N(C)C)sc2c1CCCC2	1.6
CCOC(=O)c1c(NC(=O)c2sc(Nc3ccc(C)cc3)nc2N(C)C)sc(C(=O)OC)c1C	6.8
CCOC(=O)c1c(NC(=O)c2sc(Nc3ccc(C)cc3)nc2N(C)C)sc2c1CCCC2	3.8
CCOC(=O)c1c(NC(=O)c2sc(NC(=O)OC)nc2N(C)C)sc2c1CCCC2	> 3.3
Cc1ccc(Nc2nc(-c3ccc(C)cc3)c(C(=O)Nc3sc4c(c3C(N)=O)CCCC4)s2)cc1	> 30
CN(C)c1nc(Nc2ccccc2)sc1C(=O)Nc1sc2c(c1C#N)CCCC2	> 0.84
Cc1ccc(Nc2nc(C)c(C(=O)Nc3sc4c(c3C#N)CCCC4)s2)cc1	1.5
Cc1ccc(Nc2nc(N(C)C)c(C(=O)Nc3sc4c(c3C(N)=O)CCCC4)s2)cc1	3.1
CCOC(=O)c1c(NC(=O)c2sc(Nc3ccc(C)cc3)nc2C)sc2c1CCCC2	> 3.7
